Measurements from US12577231B2, “Androgen receptor PROTACS” (GlaxoSmithKline Intellectual Property Development Limited, priority 2023, dated 2026).
Residue numbers refer to the chain shown, from its start. Read-outs that look alike come from different tables or passages of the source.

How the values were obtained:
[1] = target: T1, wild type androgen receptor (Homo sapiens, UniProt P10275); experiment: Degradation of overexpressed Androgen Receptor in A549 cells (HiBiT), wild type; assay type: cell-based; details: A549 cells overexpressing AR WT, cycloheximide, 24 hours
T1 construct: expressed in transfected cells; host or cells: A549, transduced, puromycin selected
T1 sequence (P10275 1-920): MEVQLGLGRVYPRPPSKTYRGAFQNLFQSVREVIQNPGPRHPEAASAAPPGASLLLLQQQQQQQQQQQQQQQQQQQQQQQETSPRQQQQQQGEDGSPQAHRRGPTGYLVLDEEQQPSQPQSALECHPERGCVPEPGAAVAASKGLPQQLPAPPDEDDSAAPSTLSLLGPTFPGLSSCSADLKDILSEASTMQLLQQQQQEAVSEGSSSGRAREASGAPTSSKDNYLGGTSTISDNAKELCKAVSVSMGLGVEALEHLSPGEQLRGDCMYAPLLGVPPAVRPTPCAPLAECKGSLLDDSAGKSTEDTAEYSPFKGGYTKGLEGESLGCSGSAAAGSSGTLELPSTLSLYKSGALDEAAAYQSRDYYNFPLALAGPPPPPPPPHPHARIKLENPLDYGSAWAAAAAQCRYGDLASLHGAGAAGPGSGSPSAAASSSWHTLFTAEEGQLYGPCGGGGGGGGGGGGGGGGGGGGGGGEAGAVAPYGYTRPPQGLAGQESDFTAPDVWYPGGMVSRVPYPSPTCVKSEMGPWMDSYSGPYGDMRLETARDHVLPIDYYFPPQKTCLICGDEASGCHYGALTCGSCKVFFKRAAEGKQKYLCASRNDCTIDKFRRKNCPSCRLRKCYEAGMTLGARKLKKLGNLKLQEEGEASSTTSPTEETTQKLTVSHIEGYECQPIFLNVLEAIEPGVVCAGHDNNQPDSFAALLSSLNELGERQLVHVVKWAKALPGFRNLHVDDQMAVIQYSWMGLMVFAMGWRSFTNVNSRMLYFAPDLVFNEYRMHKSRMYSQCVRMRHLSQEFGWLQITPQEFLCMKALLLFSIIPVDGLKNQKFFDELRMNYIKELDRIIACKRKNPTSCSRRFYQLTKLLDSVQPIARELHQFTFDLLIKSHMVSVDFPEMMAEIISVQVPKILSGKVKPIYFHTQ
Protocol: (§1) A549 cells were transduced to express wild type androgen receptor and Androgen receptor containing the following mutations (L702H, H875Y W742C W742L F877L, T878A and T878A/H875Y) with HiBiT tags. Transduced cells following puromycin selection were maintained in a humidified incubator (at 37° C. and 5% CO2 in the DMEM medium supplemented with 1% (v/v) Pen/Strep, 1% (v/v) Glutamax and 10% (v/v) FBS. A549 cells expressing each AR construct were detached from plate and counted. Cell suspensions at density 0.2 million per mL were prepared. Cell suspension was supplemented with 100 μg/mL of cycloheximide to block protein synthesis. Cells were preincubated with cycloheximide for 1 hr before seeding. Cells were seeded onto 384-well plate at density of 5,000 in 25 μL per well. A two fold serial dilution of test compounds, starting from 1 μM (row A) in 2-fold serial dilution series across the column using Tecan D300e dispenser. […]
(§2) Nano-Glo HiBiT Lytic reagent was prepared by adding LgBiT protein and Nano-Glo® substrate to lytic buffer pre-equilibrated at room temperature following manufacturer protocol (https://www.promega.co.uk/resources/protocols/technical-manuals/101/nanoglo-luciferase-assay-system-protocol). […] The plates were then centrifuged (100×G, 1 min) and incubated on shaker for 10 mins before taking readings on Pherastar Luminescence microplate reader. […]

[2] = male, Wistar Han, rat, in vivo, po
Protocol: Systemic exposure of various forms of N-((1r,3r)-3-(4-cyano-3-methoxyphenoxy)-2,2,4,4-tetramethylcyclobutyl)-4-(4-((4-(4-(2,4-dioxotetrahydropyrimidin-1(2H)-yl)-1H-pyrazolo[4,3-c]pyridin-1-yl)piperidin-1-yl)methyl)piperidin-1-yl)-3-fluorobenzamide were assessed following oral administration of 30 mg/kg of a suspension formulation (1% methylcellulose (aq)) or following oral administration of 35 mg/kg of a suspension formulation (100% PEG400) in the male Wistar Han rat. […] The sampling period was 72 hours, and the data is reported in the attached table as mean±SD (n=3).

[3] = target: T2, Androgen receptor T878A/H875Y (Homo sapiens, UniProt P10275, H875Y/T878A); experiment: Degradation of overexpressed Androgen Receptor in A549 cells (HiBiT), T878A/H875Y; assay type: cell-based; details: A549 cells overexpressing AR T878A.H875Y, cycloheximide, 24 hours
T2 construct: expressed in transfected cells; host or cells: A549, transduced, puromycin selected
T2 sequence (P10275 1-920 H875Y/T878A): T1 sequence (P10275 1-920) with H875Y, T878A
Protocol: as §1, §2

Compound: COc1cc(O[C@H]2C(C)(C)[C@H](NC(=O)c3ccc(N4CCC(CN5CCC(n6ncc7c(N8CCC(=O)NC8=O)nccc76)CC5)CC4)c(F)c3)C2(C)C)ccc1C#N [Example 20, N-((1r,3r)-3-(4-Cyano-3-methoxyphenoxy)-2,2,4,4-tetramethylcyclobutyl)-4-(4-((4-(4-(2,4-dioxotetrahydropyrimidin-1(2H)-yl)-1H-pyrazolo[4,3-c]pyridin-1-yl)piperidin-1-yl)methyl)piperidin-1-yl)-3-fluorobenzamide]
- Summary pXC50 [1]: 8.95
- Dose Normalised AUC0-t ([2]; 30 mg/kg): 240 ± 38 (ng · h/mL)/(mg/kg
- Dose Normalised AUC0-t ([2]; 35 mg/kg): 744 ± 66 (ng · h/mL)/(mg/kg
- Summary pXC50 [3]: 8.57
